{
  "source": "patent US5602176A",
  "about": "“Phenyl carbamate” (priority 1987, dated 1997)",
  "key": {"[1]": {"assay": "In vitro skin diffusion test (penetration through the skin)", "format": "in vitro ADME", "settings": "rat skin; listed as compound A", "description": "The penetration through the skin of the compounds for administration according to the invention may be observed in standard in vitro or in vivo tests.\nOne in vitro test is the well known diffusion test which may be effected according to the principles set out in GB 2098865 A and by T. J. Franz in J. Invest. Dermatol. (1975) 64, 194-195. Solutions containing the active agent in unlabelled or radioactively labelled form are applied to one side of isolated pieces of intact human skin or hairless rat skin about 2 cm^2 in area. The other side of the skin is in contact with physiological saline. The amount of active agent in the saline is measured in conventional manner, e.g. by HPLC or spectrophotometric techniques, or by determining the radioactivity.\nIn this test using rat skin the following penetration rates, for example, have been found: […]"}, "AChE": {"biological_target": "AChE (Rattus norvegicus, UniProt P37136)", "sequence (P37136 32-614)": "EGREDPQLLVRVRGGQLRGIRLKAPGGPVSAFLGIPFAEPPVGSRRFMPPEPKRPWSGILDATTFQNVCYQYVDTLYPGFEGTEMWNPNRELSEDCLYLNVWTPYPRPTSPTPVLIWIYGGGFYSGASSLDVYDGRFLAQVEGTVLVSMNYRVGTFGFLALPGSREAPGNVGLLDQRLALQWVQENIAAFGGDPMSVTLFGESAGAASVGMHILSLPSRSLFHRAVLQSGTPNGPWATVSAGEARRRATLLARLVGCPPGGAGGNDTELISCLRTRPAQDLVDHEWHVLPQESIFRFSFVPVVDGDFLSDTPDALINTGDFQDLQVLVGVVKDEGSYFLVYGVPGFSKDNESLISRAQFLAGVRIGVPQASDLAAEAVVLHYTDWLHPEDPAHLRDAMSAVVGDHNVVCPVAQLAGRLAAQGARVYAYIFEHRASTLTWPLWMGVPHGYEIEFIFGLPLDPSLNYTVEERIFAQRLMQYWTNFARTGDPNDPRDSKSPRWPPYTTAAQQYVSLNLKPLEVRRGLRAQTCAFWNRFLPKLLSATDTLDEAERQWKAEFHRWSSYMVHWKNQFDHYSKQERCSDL", "assay": "in vivo", "set-up": "Rat brain tissue is homogenized in cold phosphate buffer pH 7.3; from tissue; host or cells: rat brain (cortex, hippocampus, striatum), supernatant of Triton X-100 homogenate", "settings": "for ED50: rat, po, 0.5 h", "experimental": "The AChE activity is measured according to the method described by Ellman (Arch. Biochem. Biophys. 82, 70, 1959). Rat brain tissue is homogenized in cold phosphate buffer pH 7.3 (0.25 mM) containing 0.1% of Triton X-100. After centrifugation aliquots of the clear supernatant is used as enzyme source. The enzyme is preincubated with different concentrations of the inhibitor. After different times, substrate (acetylthiocholinjodide 0.5 mM) is added and the remaining activity determined.\nAcetylcholinesterase inhibition ex vivo in different rat brain regions\nThe method is as disclosed above."}, "[2]": {"system": "rat hippocampal slices (indirect method for acetylcholinesterase (AChE) inhibition)", "assay": "Electrically evoked 3H-acetylcholine release from rat hippocampal slices", "format": "cell-based", "description": "Electrically evoked ^3 H-acetylcholine release from rat hippocampal slices\nElectrically evoked ^3 H-acetylcholine (^3 H-ACh) release from rat hippocampal slices is a functional in vitro model to investigate presynaptic muscarinic autoreceptor agonists and antagonists. This model can also be used as an indirect method to evaluate drugs which inhibit acetylcholinesterase (AChE). Inhibition of AChE activity leads to the accumulation of endogenous ACh which then interacts with presynaptic muscarinic autoreceptors and inhibits further release of ^3 H-ACh.\nRat hippocampal slices (Wistar strain, 180-200 g) are prepared by chopping into cross sections whole hippocampal slices at a distance of 0.3 mm with a McIlwain tissue chopper. Hippocampal slices obtained from 3 rats are incubated for 30 min. at 23° C. in 6 ml Krebs-Ringer containing 0.1 uCi ^3 H-choline and transferred into the superfusion chamber and superfused with Kreb's medium containing 10 μM hemicholinium-3 at a rate of 1.2 ml/min. at 30° C. Collection of 5 min. fractions of the superfusate begins after 60 min. of superfusion. Two periods of electrical stimulation (2 Hz rectangular pulses 2 msec, 10 mA, 2 min.) are applied after 70 min. (S1) and after 125 min. (S2) of superfusion. […] At the end of the experiments the slices are solubilized in conc. formic acid and tritium content is determined in the superfusate and the solubilized slices. Tritium outflow is expressed as the fractional rate of tritium outflow per min. Electrically evoked tritium outflow is calculated by subtraction of the extrapolated basal tritium outflow from the total tritium outflow during the two min. of electrical stimulation and the following 13 min. and is expressed as percent of the tritium content at the beginning of the sample collection. Drug effects on stimulation evoked tritium outflow are expressed as the ratios S2 /S1. All experiments are run in dublicates using a programmable 12 channel superfusion system. For the calculation a computer program is used."}, "[3]": {"settings": "six hours after 10 μmol/kg p.o."}},
  "note": "Like-named read-outs stand apart in the source and are kept apart here.",
  "data": [
    {"smiles": "CCN(C)C(=O)Oc1cccc([C@H](C)N(C)C)c1", "note": "[Compound A, (S)-N-ethyl-3-[(1-dimethylamino)ethyl]-N-methyl-phenyl-carbamate]", "values": [
      {"measurement": "penetration rate", "setting": "[1]", "result": "23.6±14.9", "unit": "%"},
      {"measurement": "ED50", "setting": "AChE; read-out: IC50 ex vivo AChE, cortex", "result": 2, "unit": "µmol/kg"},
      {"measurement": "ED50", "setting": "AChE; read-out: IC50 ex vivo AChE, hippocampus", "result": 4, "unit": "µmol/kg"},
      {"measurement": "ED50", "setting": "AChE; read-out: IC50 ex vivo AChE, striatum", "result": 7, "unit": "µmol/kg"},
      {"measurement": "AChE inhibition ex vivo, cortex", "setting": "AChE; [3]", "result": 39, "unit": "%"},
      {"measurement": "AChE inhibition ex vivo, hippocampus", "setting": "AChE; [3]", "result": 44, "unit": "%"},
      {"measurement": "AChE inhibition ex vivo, striatum", "setting": "AChE; [3]", "result": 16, "unit": "%"},
      {"measurement": "antagonism of the inhibitory effect by atropine", "setting": "[2]", "result": "can be antagonized by atropine"},
      {"measurement": "inhibition at 100 µM", "setting": "[2]; Rattus norvegicus, 3 h, 100 μM, read-out: inhibition of electrically evoked 3H-ACh release from hippocampal slices", "result": "~40", "unit": "%"}
    ]}
  ]
}
